Legend:
[1] = test system: IL-1α secretion in TNFα-stimulated HaCaT cells; assay: TNFα-induced IL-1α secretion, ELISA; type: cell-based, human; settings: 10 μM pretreatment 24 h, then 10 ng/mL TNFα 1 h, supernatant 24 h later
Method: HaCaT cells were cultured with Dulbecco’s modified Eagle’s medium High Glucose (Lonza, Milan, Italy) supplemented with 10% FBS, 100 U/mL penicillin, 100 μg/mL streptomycin and 2 mM L-glutamine as previously described. Cells were maintained in a humidified incubator at 37 °C with 5% CO2 and incubated until the monolayer was 80% confluent. Medium was changed every 2 days.
HaCaT cells were pretreated with or without 10 μM of both SCA and SCB for 24 h. Stock solutions of the two compounds were prepared in DMSO immediately before use and diluted to the final concentration in the culture medium. In some sets of experiments, betamethasone-17-valerate (10 µg/mL) served as a positive control; dimethyl sulfoxide (DMSO) served as a solvent control. After the pretreatments, cells were stimulated with 10 ng/mL TNFα for 1 h to induce the NFκB signaling pathway. Then, media were replaced with fresh culture medium. […]
IL-1α secretion, after the treatment with 10 and 20 µM of each compound and together at the same concentrations, was assayed by a commercially available ELISA kit (Thermo Scientific, Italy). […] The optical absorbance was measured with a spectrophotometer microplate reader at 450 nm and correction at 530 nm. Final concentrations were calculated by interpolation with a standard curve of Recombinant Human IL-1α provided by the kit and results expressed as pg/mL.

[2] = test system: primary cultures of rat cerebral cortex neurons; assay: Glutamate-induced neurotoxicity, MTT viability; type: cell-based; settings: 10 μM, added 15 min before glutamate; viability 24 h later
Method: Primary cultures of cortical neurons have been prepared from 1 day-old male rats [41]. After re-suspension in the plating medium, the cells were counted and then plated on poly-l-lysine (5 μg/mL)-coated dishes at a density of 2.5 × 10^6 cells/dish or on poly-l-lysine (5 μg/mL)-coated 24-well plates at a density of 0.5 × 10^6 cells/dish. The plating medium consisted of Eagle's Basal Medium supplemented with 10% inactivated fetal calf serum, 25 mM KCl, 2 mM glutamine and 100 μg/mL gentamycine. […] Cytosine arabinoside (10 μM) was added within 24 h of plating to prevent glial cell proliferation [41]. The cultures were maintained for 8 days in vitro before experiments.
The cultures were then returned to the incubator in their growth medium. 24 h later, the glutamate-induced neurotoxicity was evaluated by measuring the neuronal viability. The different drugs tested were added 15 min before glutamate exposure and were present until the end of the experiment.
The integrity of mitochondrial enzymes in viable neurons was determined with a colorimetric assay using 3-[4,5-dimethylthial-2-yl]-3, 5-diphenyl-tetrazolinium bromide (MTT) salt, as described by Mosdam [42]. […] The precipitated dye was dissolved in isopropanol with 1 M HCl and colorimetrically (absorbance at 570 nm) quantified. The results were expressed as values of absorbance at 570 nm.

[3] = DPPH radical scavenging assay; settings: 0.1 mg/mL; Trolox equivalents
Method: The DPPH assay was evaluated according to Aadil (2013) and Bonetti (2016). Fifty microliters of samples (cortisone, SCA and SCB) were added to […] of 0.06 mM of methanolic DPPH· radical solution. The reaction mixture was left to stand at room temperature in the dark for 15 min. The absorbance for the sample (Asample) was measured at 515 nm against methanol blank. A control was the absorbance of DPPH· solution.
Methanolic solutions with different Trolox concentrations (0.05 − 1 mM/L) were analyzed for calibration curve. The free radical scavenging capacity was expressed as micromolar of Trolox equivalents (TEs)/g of SCA and SCB compounds using calibration curve.

[4] = test system: Salmonella typhimurium TA98; assay: Ames test (plate incorporation), strain TA98; type: cell-based
Method: Mutagenicity assay was performed following the plate incorporation method with the histidine-requiring Salmonella typhimurium mutant TA98 and TA100 strains. All strains (100 µl per plate of fresh overnight cultures) were checked with and without the addition of 0.5 mL of a 5% S9 exogenous metabolic activator (S9 mix). The lyophilized post-mitochondrial supernatant S9 mix (Aroclor 1254-induced, Sprague–Dawley male rat liver in 0.154 M KCl solution, Molecular Toxicology, Inc., Boone, NC, USA), commonly used for the activation of pro-mutagens to mutagenic metabolites, was stored at− 80 °C before use. The concentration tested for all the samples were 1, 5, 10, 50, 100 µL/plate of a stock solution 100 mg/mL.
A fully-grown culture of the appropriate tester strain (0.1 mL) was added to 2 mL Molten Top Agar (0.6% agar, 0.6% NaCl, 0.5 mM L-histidine/biotin solution) at 46 °C, together with 0.1 mL of each sample solution at different concentrations, and 0.5 mL S9 mix for assays with metabolic activation or 0.5 mL of phosphate buffer pH 7.4 to test without metabolic activation. The ingredients were thoroughly mixed and poured onto minimal glucose agar plates (1.5% agar in 2% Vogel–Bonner medium E with 5% glucose solution).
DMSO was used as a negative control (100 µl/plate). Positive controls were prepared as follows: 2-aminoanthracene (2 µg/plate) and 2-nitrofluorene (2 µg/plate) for TA98 with and without metabolic activator (S9 mix) respectively; 2-aminoanthracene (2 µg/plate) and sodium azide (2 µg/plate) for TA100, with and without metabolic activator (S9 mix) respectively. The plates were incubated at 37 °C for 72 h and then the his^+ revertants were checked and counted using a Colony Counter 560 Suntex (Antibioticos, Italy). A sample was considered mutagenic when the observed number of colonies was at least twofold over the spontaneous level of revertants. All determinations were made in triplicate. Relative standard deviations were computed using the statistical software […] 6.0 (StatSoft Italia srl).

[5] = TA98, + S9, 1 µL/plate of a stock solution 100 mg/mL
[6] = TA98, + S9, 5 µL/plate of a stock solution 100 mg/mL
[7] = TA98, + S9, 10 µL/plate of a stock solution 100 mg/mL
[8] = TA98, + S9, 50 µL/plate of a stock solution 100 mg/mL
[9] = TA98, + S9, 100 µL/plate of a stock solution 100 mg/mL
[10] = TA98, − S9, 1 µL/plate of a stock solution 100 mg/mL
[11] = TA98, − S9, 5 µL/plate of a stock solution 100 mg/mL
[12] = TA98, − S9, 10 µL/plate of a stock solution 100 mg/mL
[13] = TA98, − S9, 50 µL/plate of a stock solution 100 mg/mL
[14] = TA98, − S9, 100 µL/plate of a stock solution 100 mg/mL

Compound | effect on TNFα-triggered IL-1α release [1] | effect on glutamate-induced neurotoxicity (cell viability, MTT) [2] | DPPH radical scavenging activity (in words) [3] | genotoxic activity (Ames test) [4] | average number of revertant colonies [4, 5] | t/c (revertant colonies in treated plates/untreated plates) [4, 5] | average number of revertant colonies [4, 6] | t/c (revertant colonies in treated plates/untreated plates) [4, 6] | average number of revertant colonies [4, 7] | t/c (revertant colonies in treated plates/untreated plates) [4, 7] | average number of revertant colonies [4, 8] | t/c (revertant colonies in treated plates/untreated plates) [4, 8] | average number of revertant colonies [4, 9] | t/c (revertant colonies in treated plates/untreated plates) [4, 9] | average number of revertant colonies [4, 10] | t/c (revertant colonies in treated plates/untreated plates) [4, 10] | average number of revertant colonies [4, 11] | t/c (revertant colonies in treated plates/untreated plates) [4, 11] | average number of revertant colonies [4, 12] | t/c (revertant colonies in treated plates/untreated plates) [4, 12] | other results
Cc1ccc(O)c2c1CCC1C3CC[C@](O)(C(=O)CO)[C@@]3(C)CC(=O)[C@@]21O (stereo partly drawn) [SCA, 1,9β,17,21‐tetrahydoxy‐4‐methyl‐19‐nor‐9β‐pregna‐1,3,5(10)‐trien‐11,20‐dione] | markedly inhibited | partially reduced | high antioxidant property compared with the cortisone precursor | For none of the samples genotoxic activity emerged | 43,7 | 1.2 | 43,3 | 1.2 | 41,3 | 1.1 | 39,3 | 1.1 | 41,3 | 1.1 | 17,7 | 0.9 | 23,7 | 1.1 | 23,3 | 1.1 | average number of revertant colonies [4, 13]: 25,3; t/c (revertant colonies in treated plates/untreated plates) [4, 13]: 1.2; average number of revertant colonies [4, 14]: 20,3; t/c (revertant colonies in treated plates/untreated plates) [4, 14]: 1.0
Cc1ccc(O)c2c1CCC1C3CC[C@](O)([C@H](O)CO)[C@@]3(C)CC(=O)[C@@]21O (stereo partly drawn) [SCB, 1,9β,17,20β,21‐ pentahydoxy‐4‐methyl‐19‐nor‐9β‐pregna‐1,3,5(10)‐trien‐11‐one] | markedly inhibited | partially reduced | high antioxidant property compared with the cortisone precursor | For none of the samples genotoxic activity emerged | 34 | 1.1 | 35 | 1.1 | 35 | 1.1 | 31 | 1.0 | 30 | 0.9 | 24 | 1.0 | 23 | 0.9 | 22 | 0.9 | average number of revertant colonies [4, 13]: 21; t/c (revertant colonies in treated plates/untreated plates) [4, 13]: 0.9; average number of revertant colonies [4, 14]: 19; t/c (revertant colonies in treated plates/untreated plates) [4, 14]: 0.8
